Data taken from patent US20240196893A1, “LOW TOXICITY COMPOUNDS FOR USE AS INSECTICIDES AND METHOD OF PRODUCING SAID COMPOUNDS” (UNIVERSIDADE DO PORTO, priority 2021, published 2024).

How the values were obtained:
[1] = tested on: insect effector caspase DRICE; assay: Caspase-like activity in insect cells (DEVD-aminoluciferin substrate); assay type: cell-based; conditions: 50 μg/mL
Protocol: The compound (6a) of the present application presents a mechanism of action distinct of the commercial insecticide chlorpyrifos, which may be of interest as a strategy to overcome pesticide resistances. Specifically, the compound (6a) is capable of activating insect effector caspase DRICE (involved in the process of cell death), while the commercial insecticide is unable to trigger this effect and has no impact in this target (FIG. 4). This was evaluated by incubating cells with the same cellular density with the proluminescent substrate DEVD-aminoluciferin, which becomes […] after cleavage by effector caspases, being detected subsequently in a luminescence detector.

[2] = tested on: Sf9 cells; conditions: Sf9 insect cells, 100 μg/mL, prior studies; cited from earlier work
[3] = tested on: Sf9 cells; assay: Viability of Sf9 insect cells (resazurin); assay type: cell-based, Spodoptera frugiperda
From the text: Results represent the mean+SEM of at least three independent experiments, each of them performed in triplicate: *p<0.05, **p<0.01, ***p<0.001.

[4] = tested on: human keratinocytes; assay: Viability of human keratinocytes (resazurin); assay type: cell-based; conditions: 50 μg/mL, 24 hours
Protocol: Results represent the mean±SEM of at least three independent experiments, each of them performed in triplicate: **<0.01, ***p<0.001.
The compound (6a) of the present application has no toxicity in human cells, contrarily to the ginkgolic acid (1), or the synthetic commercial insecticide evaluated as benchmark (chlorpyrifos) (FIG. 3), as assessed by cultivating human keratinocytes in the same cell density, exposing them to either compound (6a) or chlorpyrifos at the same concentration (50 μg/mL) and assessing cell viability after 24 hours using resazurin.

| Compound | caspase-like activity, increase over basal level [1] | loss of viability [2] | loss of cell viability relative to chlorpyrifos ([3]; Spodoptera frugiperda cells, 100 μg/mL, 24 hours, resazurin) | activity in Sf9 insect cells (compared with compound 1) ([3]; Sf9 insect cells) | loss of cell viability [4] |
| --- | --- | --- | --- | --- | --- |
| CCCCCCC=CCCCCCCCCCc1cccc(O)c1C(=O)O [compound 1, 2-(heptadec-10-en-1-yl)-6-hydroxybenzoic acid] | no increase | ca. 75% | – | – | – |
| CCCCCCCCCCCCNc1ccccc1C(=O)O [compound 6a, 2-(dodecylamino) benzoic acid] | 400% | – | more than the triple | – | – |
| CCCCCCC=CCCCCCCCCCc1cccc(OC)c1C(=O)O [compound 2, 2-(heptadec-10-en-1-yl)-6-methoxybenzoic acid] | – | – | – | lower activity | – |
| CCOP(=S)(OCC)Oc1nc(Cl)c(Cl)cc1Cl [chlorpyrifos, O,O-diethyl O-(3,5,6-trichloropyridin-2-yl) phosphorothioate] | no statistically significant changes | – | – | – | ca. 20% |
